Test results from patent US4816447A, “Anti-viral guanine compounds” (priority 1984, dated 1989).
Read-outs that look alike come from different tables or passages of the source.

Tests used:
[1] = system: Herpes simplex virus type 1; experiment: Tube dilution assay, viral cytopathology of HSV-1 in rabbit kidney cell cultures; details: Human alphaherpesvirus 1, in Oryctolagus cuniculus, read-out: Minimum Effective Concentration, Strain Schooler
[2] = system: Herpes simplex virus type 2; experiment: Tube dilution assay, viral cytopathology of HSV-2 in rabbit kidney cell cultures; details: Human alphaherpesvirus 2, in Oryctolagus cuniculus, read-out: Minimum Effective Concentration
HSV-1 [3] = experiment: Orofacial HSV-1 infection of hairless mice, oral or topical treatment (Table VI); assay type: in vivo, HSV-1; HRS mice; details: for minimal effective dose: Human alphaherpesvirus 1, oral treatment, read-out: Min. Effective Dose; for minimal effective dose / Min. Effective Dose: orofacial infection; for Min. Effective Dose: topical treatment
HSV-1 [4] = experiment: Corneal HSV-1 infection of rabbit eyes, topical treatment (Table VI); assay type: in vivo, HSV-1; rabbits; details: for Min. Effective Dose: corneal infection, topical treatment; for limiting progression and resolving corneal lesions: infected rabbits
[5] = system: Herpes simplex virus type 1 (Strain S); experiment: Orofacial Herpes simplex virus type 1 infection in mice, therapeutic oral treatment (Table XIV); assay type: in vivo, Herpes simplex virus type 1; HRS (hairless) mice; details: for Lesion Incidence (%) / Lesion Incidence (number/Total) / Lesion Severity (scale 0 to 4): 12.5 mg/kg/day oral
Method: Twenty gram HRS (hairless) mice were infected on the abraded orofacial area with Herpes simplex virus type 1 (Strain S).
a. Groups of 10 infected animals were treated twice daily by oral gavage for up to 7 days with the compound of formula II at 12.5 mg/kg/day, starting 3, 8, 12, 24, 48, 72, or 96 hours after infection. […]
At 7 days after initiation of infection, the extent of lesion development in the orofacial area was measured on a scale of 0 (no lesions) to 4 (massive lesions over the entire snout).

[6] = system: Herpes simplex virus type 1; experiment: Intraperitoneal Herpes simplex type 1 infection in mice, oral treatment (Table XI); assay type: in vivo, Herpes simplex type 1; ICR/Ha mice; details: for Percent Survival: at 13 days
Text: ICR/Ha mice were infected as described in Example 36. […] These animals served as toxicity controls.

[7] = system: Herpes simplex virus type 1 (Strain S); experiment: Orofacial Herpes simplex virus type 1 infection in mice, oral treatment (Table XIII); assay type: in vivo, Herpes simplex virus type 1; HRS (hairless) mice; details: for Lesion Incidence (%) / Lesion Incidence (number/Total) / Lesion Severity (scale 0 to 4): 7 days
Method: Twenty grams HRS (hairless) mice were infected on the abraded orofacial area with Herpes simplex virus type 1 (Strain S). […] At 7 days after initiation of infection, the extent of lesion development in the orofacial area was measured on a scale of 0 (no lesions) to 4 (massive lesions over the entire snout).

Varicella-Zoster virus = experiment: Varicella-Zoster plaque reduction assay on human MRC-5 monolayers; assay type: cell-based, Varicella-Zoster (Strain KMcC); human MRC-5 cells
Text: ^b Plaque reduction assay on human MRC5 cell monolayers.

SV40 = experiment: Plaque inhibition, SV40 on CV-1 cells (Table V); assay type: cell-based, SV40; CV-1 (monkey) cells
Method: ED50 values developed for the cyclic monophosphate are compared on a weight basis to those established for the compound of Formula II and acyclovir.
SV40 was assayed on CV-1 (monkey) cell cultures.

HSV-1 (383R1) = experiment: Protection of mice against intraperitoneal infection with HSV-1 (383R1) (Table IX); assay type: in vivo, HSV-1; mice
Method: (§1) 1. […] Groups of mice infected intraperitoneally with increasing doses of HSV-1 or HSV-1 (383R1) were treated twice daily subcutaneously for 4 days with either the Cyclic Monophosphate or the compound of Formula II. Mean survival times of treated mice were compared.

HSV-2 TS6 = experiment: microbe, parasite or virus in culture; details: Human alphaherpesvirus 2, read-out: ED50
[8] = system: HSV-1 wild type (Schooler); experiment: Protection of mice against intraperitoneal infection with HSV-1 (Table IX); assay type: in vivo, HSV-1; mice
Method: as §1

HSV-1 383R1 = assay type: cell-based, HSV-1 (383R1); NIH 3T3 mouse cells; details: for EC50: Human alphaherpesvirus 1, in Mus musculus

Nc1nc2c(ncn2COCCO)c(=O)[nH]1 [Acycloguanosine, 9-(2-hydroxyethoxymethyl)guanine, reference compound]
minimal effective concentration [1]: 1 to 3 µg/mL
minimal effective concentration [2]: 1 to 3 µg/mL
minimal effective dose (HSV-1 [3]): 12.5 mg/kg/day
Min. Effective Dose (HSV-1 [3]): 0.25-1.0%
Min. Effective Dose (HSV-1 [4]): 1.0%
limiting progression and resolving corneal lesions (HSV-1 [4]): equally effective
Lesion Incidence (%) ([5]; start 3 hours post infection): 100%
Lesion Incidence (number/Total) ([5]; start 3 hours post infection): 10/10
Lesion Severity (scale 0 to 4) ([5]; start 3 hours post infection): 2.80
Lesion Incidence (%) ([5]; start 8 hours post infection): 100%
Lesion Incidence (number/Total) ([5]; start 8 hours post infection): 10/10
Lesion Severity (scale 0 to 4) ([5]; start 8 hours post infection): 2.95
Lesion Incidence (%) ([5]; start 12 hours post infection): 90%
Lesion Incidence (number/Total) ([5]; start 12 hours post infection): 9/10
Lesion Severity (scale 0 to 4) ([5]; start 12 hours post infection): 3.30
Lesion Incidence (%) ([5]; start 24 hours post infection): 90%
Lesion Incidence (number/Total) ([5]; start 24 hours post infection): 9/10
Lesion Severity (scale 0 to 4) ([5]; start 24 hours post infection): 2.85
Lesion Incidence (%) ([5]; start 48 hours post infection): 80%
Lesion Incidence (number/Total) ([5]; start 48 hours post infection): 8/10
Lesion Severity (scale 0 to 4) ([5]; start 48 hours post infection): 2.85
Lesion Incidence (%) ([5]; start 72 hours post infection): 90%
Lesion Incidence (number/Total) ([5]; start 72 hours post infection): 9/10
Lesion Severity (scale 0 to 4) ([5]; start 72 hours post infection): 3.60
Lesion Incidence (%) ([5]; start 96 hours post infection): 100%
Lesion Incidence (number/Total) ([5]; start 96 hours post infection): 7/7
Lesion Severity (scale 0 to 4) ([5]; start 96 hours post infection): 4.00
incidence of lesions vs placebo ([5]; all start times): None of the acycloguanosine treated groups had a significantly lower incidence of lesions
lesion scores vs placebo ([5]; only start 3 hours after infection): statistically different in lesion score
Avg. Survival Time ([6]; 3.1 mg/kg/day oral): 6.3 days
Percent Survival ([6]; 3.1 mg/kg/day oral): 0%
Avg. Survival Time ([6]; 12.5 mg/kg/day oral): 6.6 days
Percent Survival ([6]; 12.5 mg/kg/day oral): 0%
Avg. Survival Time ([6]; 50 mg/kg/day oral): 8.2 days
Percent Survival ([6]; 50 mg/kg/day oral): 20%
Avg. Survival Time ([6]; 100 mg/kg/day oral): 11.4 days
Percent Survival ([6]; 100 mg/kg/day oral): 60%
survival vs placebo ([6]; all treated groups): none of the acycloquanosine-treated groups showed enhanced survival
extension of survival time vs placebo ([6]; only at 100 and 50 mg/kg daily): statistically significant extension of survival time
Lesion Incidence (%) ([7]; 0.8 mg/kg/day oral): 88%
Lesion Incidence (number/Total) ([7]; 0.8 mg/kg/day oral): 7/8
Lesion Severity (scale 0 to 4) ([7]; 0.8 mg/kg/day oral): 3.11
Lesion Incidence (%) ([7]; 3.1 mg/kg/day oral): 100%
Lesion Incidence (number/Total) ([7]; 3.1 mg/kg/day oral): 6/6
Lesion Severity (scale 0 to 4) ([7]; 3.1 mg/kg/day oral): 3.25
Lesion Incidence (%) ([7]; 12.5 mg/kg/day oral): 100%
Lesion Incidence (number/Total) ([7]; 12.5 mg/kg/day oral): 6/6
Lesion Severity (scale 0 to 4) ([7]; 12.5 mg/kg/day oral): 2.67
Lesion Incidence (%) ([7]; 50 mg/kg/day oral): 14%
Lesion Incidence (number/Total) ([7]; 50 mg/kg/day oral): 1/7
incidence of lesions vs placebo ([7]; only at 50 mg/kg): statistically significant protection
extent of lesion development vs placebo ([7]; only at 50 and 12.5 mg/kg): statistically significant protection
minimal effective concentration (Varicella-Zoster virus; Human alphaherpesvirus 3, MRC5, Strain KMcC, plaque reduction, read-out: Minimum Effective Concentration): 1 to 2 µg/mL
comparative activity (Varicella-Zoster virus; compound of formula II vs acycloguanosine): equally active

Nc1nc2c(ncn2COC2COP(=O)(O)OC2)c(=O)[nH]1 (stereo not drawn) [Cyclic Monophosphate, Potassium 9-(1,3-dihydroxy-2-propoxymethyl)guanine cyclic monophosphate]
EC50 (SV40; Primates, read-out: ED50, concentration required for 50% plaque inhibition, SV40, CV-1): 6 µg/mL
inhibition of DNA virus (SV40; SV40): inhibitory
minimal effective dose (HSV-1 [3]): 3.1 mg/kg/day
efficacy relative to acyclovir by minimum effective dose (HSV-1 [3]; orofacial): consistently more efficacious than acyclovir
Min. Effective Dose (HSV-1 [3]): 0.06%
Min. Effective Dose (HSV-1 [4]): 1.0%
limiting progression and resolving corneal lesions (HSV-1 [4]): equally effective
Mean Survival Time (± SD) (HSV-1 (383R1); HSV-1 (383R1), s.c. twice daily, 4 days): 13.42 (0.82)
efficacy against HSV-1 (383R1) relative to wild type HSV-1 (HSV-1 (383R1); mouse, in vivo): equally effective
EC50 (HSV-2 TS6): 0.4 µg/mL
Mean Survival Time (± SD) ([8]; HSV-1, s.c. twice daily, 4 days): 12.65 (0.84)
protective efficacy over a 10^6 -fold virus challenge range ([8]; HSV-1 or HSV-1 (383R1)): no significant difference in protective efficacy
antiviral activity on 3T3 TK^- /TK^+HSV vs 3T3 TK^- cells (HSV-1 383R1; HSV-1 (383R1)): equivalent
EC50 (HSV-1 383R1; read-out: Antiviral Concentration, 50% plaque reduction, HSV-1 383R1, 3T3 TK^- /TK^+HSV cells): 1 µg/mL
EC50 (HSV-1 383R1; read-out: Antiviral Concentration, 50% plaque reduction, HSV-1 383R1, 3T3 TK^- cells): 1 µg/mL
